Data on eight compounds can be found in PubChem BioAssay (NCI).

Among the test systems are MCF7 breast; MOLT-4 leukemia; M14 melanoma; DU-145 prostate; NCI-H23 lung; CAKI-1 renal; ACHN renal; EKVX NSCLC; RXF 393 renal; RPMI-8226 leukemia.
Assay in all cases: NCI-60 cell line screen, 48 h

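Assay format: 96-well plates, 48-hour exposure. The concentration for 50% growth inhibition is given as GI50. The concentration for full growth arrest is given as TGI.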

As for `N#C/C(=C/N1CCN(C(=O)c2ccco2)C1=S)C(=O)c1ccccc1`, the GI50 is 4.47 µM with MCF7 breast; 43.7 µM in the assay on MOLT-4 leukemia; 14.9 µM with M14 melanoma; 5.01 µM with DU-145 prostate; 15.2 µM in the assay on NCI-H23 lung; 12.5 µM in the assay with CAKI-1 renal. Further, the GI50 with ACHN renal was 16.6 µM; in the assay on EKVX NSCLC, 17.8 µM; with RXF 393 renal, 4.09 µM; in the assay with RPMI-8226 leukemia it was 5.56 µM. For the same compound, the TGI with MCF7 breast was greater than 100 µM; with MOLT-4 leukemia it was greater than 100 µM; in the assay with M14 melanoma, 36.8 µM; in the assay with DU-145 prostate it was greater than 100 µM; with NCI-H23 lung it was 43.5 µM; in the assay with CAKI-1 renal, 44.4 µM. The TGI with ACHN renal was 72.5 µM; with EKVX NSCLC it was 48 µM; in the assay on RXF 393 renal, 19.4 µM; in the assay on RPMI-8226 leukemia, greater than 100 µM.
As to `Cc1c(C2=C(Br)C(=O)N(C)C2=O)c(=O)n(C)c(=O)n1C`, the TGI is 37.1 µM in the assay with MCF7 breast; 55.1 µM in the assay on MOLT-4 leukemia; greater than 100 µM in the assay on M14 melanoma; 80.9 µM in the assay with DU-145 prostate; 42.9 µM with NCI-H23 lung; 34.8 µM in the assay with CAKI-1 renal. The TGI stood at 94.3 µM with ACHN renal, 41.8 µM in the assay with EKVX NSCLC, 29 µM in the assay with RXF 393 renal and 46.3 µM with RPMI-8226 leukemia.
For `N#CC(=NCCO)C1=C(O)c2ccccc2C1=O`, the TGI in the assay on MCF7 breast, in the assay with MOLT-4 leukemia, in the assay on M14 melanoma, in the assay on DU-145 prostate, in the assay on NCI-H23 lung and in the assay on CAKI-1 renal was greater than 100 µM each time. Moreover, the TGI with ACHN renal, in the assay on EKVX NSCLC, in the assay on RXF 393 renal and in the assay with RPMI-8226 leukemia was greater than 100 µM each time.
Regarding `COc1ccc(C(=O)COc2cccc(/C=C3\Oc4ccc5ccccc5c4C3=O)c2)cc1`, the GI50 is 2.45 µM in the assay on MCF7 breast; 2.85 µM with MOLT-4 leukemia; 4.8 µM in the assay with M14 melanoma; 4.19 µM with DU-145 prostate; 3.38 µM with NCI-H23 lung; 10.7 µM in the assay with CAKI-1 renal. Besides, the GI50 with ACHN renal was 15.2 µM; with EKVX NSCLC it was 14.4 µM; in the assay with RXF 393 renal it was 0.545 µM; in the assay with RPMI-8226 leukemia, 0.345 µM. Also, the TGI is 16.1 µM with MCF7 breast; 21.6 µM with MOLT-4 leukemia; 18.1 µM in the assay on M14 melanoma; 16 µM in the assay with DU-145 prostate; 16.8 µM in the assay with NCI-H23 lung; 23.5 µM in the assay with CAKI-1 renal. Also, the TGI was found to be 29 µM in the assay with ACHN renal, 42.8 µM with EKVX NSCLC, 1.77 µM in the assay on RXF 393 renal and 2.01 µM in the assay on RPMI-8226 leukemia.
`Cc1cc(S(=O)(=O)N/N=C(\Sc2cc(Cl)c(C)cc2S(N)(=O)=O)c2ccc(Cl)cc2)c(Cl)cc1Cl`: the GI50 was 42.8 µM with MCF7 breast; 48.3 µM with MOLT-4 leukemia; greater than 100 µM in the assay with M14 melanoma; greater than 100 µM in the assay with DU-145 prostate; 26.7 µM with NCI-H23 lung; 61.8 µM with CAKI-1 renal. The GI50 was 25.6 µM in the assay on ACHN renal, greater than 100 µM with EKVX NSCLC, 54.8 µM in the assay with RXF 393 renal and 27.3 µM in the assay on RPMI-8226 leukemia. Besides, the TGI with MCF7 breast was greater than 100 µM; in the assay with MOLT-4 leukemia it was greater than 100 µM; with M14 melanoma it was greater than 100 µM; in the assay with DU-145 prostate, greater than 100 µM; in the assay with NCI-H23 lung, 67.9 µM; in the assay with CAKI-1 renal it was greater than 100 µM. Moreover, the TGI was 73.9 µM in the assay with ACHN renal, greater than 100 µM in the assay with EKVX NSCLC, greater than 100 µM with RXF 393 renal and 86.4 µM with RPMI-8226 leukemia.
Regarding `COc1cc2c3c(n(CCCN(C)C)c(=O)c2cc1OC)-c1ccccc1C3=O`, the GI50 in the assay on MCF7 breast is 2.34 µM; in the assay on MOLT-4 leukemia, 0.463 µM; in the assay with M14 melanoma, 3.83 µM; with DU-145 prostate it was 5.05 µM; in the assay with NCI-H23 lung, 10.6 µM; in the assay on CAKI-1 renal, 12.7 µM. The GI50 was 6.9 µM in the assay with ACHN renal, greater than 43.7 µM with EKVX NSCLC, 6.68 µM in the assay with RXF 393 renal and 0.238 µM in the assay on RPMI-8226 leukemia. In addition, the TGI in the assay with MCF7 breast was greater than 53.4 µM; in the assay with MOLT-4 leukemia, 1.73 µM; with M14 melanoma, greater than 88.2 µM; with DU-145 prostate it was 24.7 µM; in the assay on NCI-H23 lung it was greater than 72 µM; with CAKI-1 renal, greater than 77.9 µM. Moreover, the TGI in the assay with ACHN renal was 20.8 µM; in the assay with EKVX NSCLC, greater than 72.7 µM; in the assay with RXF 393 renal, 24.7 µM; in the assay on RPMI-8226 leukemia, 1.53 µM.
In the case of `CC(C)S(=O)(=O)c1ccccc1Nc1nc(Nc2cccc(NC(=O)CN)c2)ncc1Cl`, the GI50 is 0.0177 µM in the assay on MCF7 breast; 0.231 µM in the assay with MOLT-4 leukemia; 0.189 µM in the assay on M14 melanoma; 0.406 µM with DU-145 prostate; 0.208 µM in the assay with NCI-H23 lung; 0.2 µM in the assay with CAKI-1 renal. The GI50 in the assay on ACHN renal was 0.124 µM; with EKVX NSCLC, 1.5 µM; in the assay on RXF 393 renal, 0.0565 µM; with RPMI-8226 leukemia, 0.254 µM. Also, the TGI was 1.25 µM in the assay with MCF7 breast; 2.14 µM in the assay with MOLT-4 leukemia; 1.49 µM with M14 melanoma; 6.51 µM in the assay with DU-145 prostate; 1.03 µM in the assay with NCI-H23 lung; 7.25 µM with CAKI-1 renal. The TGI with ACHN renal was determined as 6.95 µM; in the assay on EKVX NSCLC it was 10.1 µM; in the assay on RXF 393 renal, 0.302 µM; in the assay with RPMI-8226 leukemia, 2.41 µM.
Regarding `O=C(/C=C/c1cc(CN2CCOCC2)c(O)c2ncccc12)c1cc(CN2CCOCC2)c(O)c2ncccc12`, the GI50 in the assay with MCF7 breast is less than 0.0175 µM; in the assay on MOLT-4 leukemia, 0.0529 µM; with M14 melanoma it was 0.0506 µM; with DU-145 prostate, less than 0.0219 µM; with NCI-H23 lung it was 0.0586 µM; in the assay on CAKI-1 renal, 0.0842 µM. For the same compound, the GI50 was 0.0329 µM in the assay on ACHN renal, 0.077 µM in the assay on EKVX NSCLC, 0.14 µM with RXF 393 renal and 0.0222 µM with RPMI-8226 leukemia. The TGI with MCF7 breast was greater than 100 µM; in the assay with MOLT-4 leukemia, greater than 100 µM; with M14 melanoma, greater than 64.2 µM; in the assay on DU-145 prostate, greater than 100 µM; in the assay with NCI-H23 lung, greater than 100 µM; with CAKI-1 renal, greater than 100 µM. Moreover, the TGI was greater than 100 µM in the assay on ACHN renal, greater than 100 µM in the assay with EKVX NSCLC, 14.3 µM in the assay on RXF 393 renal and greater than 100 µM in the assay on RPMI-8226 leukemia.
